Data as given in the kinase profiling compilation of Christmann-Franck et al. (2016).

How the values were obtained:
Assay in all cases: radiometric filter-binding kinase assay
[1] = test system: AKT1 (human), P31749 [S473D]
[2] = molecular target: BRSK2 (human) (UniProt Q8IWQ3)
[3] = molecular target: CLK2 (human) (UniProt P49760)
[4] = molecular target: CSNK2A1 (human) (UniProt P68400)
[5] = molecular target: DAPK1 (human) (UniProt P53355)
[6] = molecular target: DYRK1A (human) (UniProt Q13627)
[7] = molecular target: DYRK3 (human) (UniProt O43781)
Sequence of DYRK3 (human) (O43781 whole entry, looked up): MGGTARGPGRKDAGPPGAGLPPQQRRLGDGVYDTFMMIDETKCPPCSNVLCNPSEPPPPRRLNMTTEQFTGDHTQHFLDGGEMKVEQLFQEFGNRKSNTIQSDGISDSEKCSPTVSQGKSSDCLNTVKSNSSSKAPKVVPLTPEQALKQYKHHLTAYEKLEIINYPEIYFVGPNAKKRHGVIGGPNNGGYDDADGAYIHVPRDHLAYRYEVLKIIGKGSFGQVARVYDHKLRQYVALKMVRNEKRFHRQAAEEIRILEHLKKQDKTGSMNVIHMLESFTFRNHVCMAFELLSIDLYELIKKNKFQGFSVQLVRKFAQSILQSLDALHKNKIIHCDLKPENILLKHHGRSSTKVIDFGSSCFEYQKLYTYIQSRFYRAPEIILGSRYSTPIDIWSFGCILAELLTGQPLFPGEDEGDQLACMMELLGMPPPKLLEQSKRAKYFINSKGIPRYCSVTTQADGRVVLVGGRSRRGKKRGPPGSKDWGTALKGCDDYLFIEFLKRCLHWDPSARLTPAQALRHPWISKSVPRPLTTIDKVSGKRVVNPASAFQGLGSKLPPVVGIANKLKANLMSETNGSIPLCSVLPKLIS

[8] = molecular target: EPHB3 (human) (UniProt P54753)
[9] = molecular target: IKBKB (human) (UniProt O14920)
[10] = molecular target: IKBKE (human) (UniProt Q14164)
[11] = molecular target: IRAK4 (human) (UniProt Q9NWZ3)
[12] = molecular target: MAP2K6 (human) (UniProt P52564)
[13] = molecular target: MAP3K11 (human) (UniProt Q16584)
[14] = molecular target: MAP3K7 TAB1 (human) (UniProt Q15750+O43318)
[15] = molecular target: MAPK11 (human) (UniProt Q15759)
[16] = molecular target: MAPK12 (human) (UniProt P53778)
Sequence of MAPK12 (human) (P53778 whole entry, looked up): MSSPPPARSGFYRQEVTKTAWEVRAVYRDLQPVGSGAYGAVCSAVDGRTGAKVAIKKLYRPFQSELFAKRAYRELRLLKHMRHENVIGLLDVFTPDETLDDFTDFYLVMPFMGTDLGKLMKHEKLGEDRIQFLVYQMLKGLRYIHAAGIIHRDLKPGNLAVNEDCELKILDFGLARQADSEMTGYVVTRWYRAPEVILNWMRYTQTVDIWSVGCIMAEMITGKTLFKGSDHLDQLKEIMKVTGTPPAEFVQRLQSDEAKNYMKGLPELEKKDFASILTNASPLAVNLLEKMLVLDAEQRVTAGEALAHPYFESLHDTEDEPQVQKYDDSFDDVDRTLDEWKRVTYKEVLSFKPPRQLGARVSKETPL

[17] = molecular target: MAPK14 (human) (UniProt Q16539)
[18] = molecular target: MAPK3 (human) (UniProt P27361)
[19] = molecular target: MAPK8 (human) (UniProt P45983)
[20] = molecular target: MAPKAPK3 (human) (UniProt Q16644)
Sequence of MAPKAPK3 (human) (Q16644 whole entry, looked up): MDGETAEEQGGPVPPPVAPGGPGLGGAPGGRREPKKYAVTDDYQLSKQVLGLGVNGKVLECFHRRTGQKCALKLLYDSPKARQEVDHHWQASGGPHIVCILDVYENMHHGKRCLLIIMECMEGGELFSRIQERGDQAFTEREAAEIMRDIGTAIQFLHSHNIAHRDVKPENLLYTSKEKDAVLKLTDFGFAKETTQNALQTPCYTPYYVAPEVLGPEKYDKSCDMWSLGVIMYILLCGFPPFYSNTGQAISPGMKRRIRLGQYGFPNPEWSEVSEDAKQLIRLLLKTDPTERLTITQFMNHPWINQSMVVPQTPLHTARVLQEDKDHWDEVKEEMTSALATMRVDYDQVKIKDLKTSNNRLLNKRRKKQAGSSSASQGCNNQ

[21] = molecular target: MAPKAPK5 (human) (UniProt Q8IW41)
[22] = molecular target: MKNK2 (human) (UniProt Q9HBH9)
Sequence of MKNK2 (human) (Q9HBH9 whole entry, looked up): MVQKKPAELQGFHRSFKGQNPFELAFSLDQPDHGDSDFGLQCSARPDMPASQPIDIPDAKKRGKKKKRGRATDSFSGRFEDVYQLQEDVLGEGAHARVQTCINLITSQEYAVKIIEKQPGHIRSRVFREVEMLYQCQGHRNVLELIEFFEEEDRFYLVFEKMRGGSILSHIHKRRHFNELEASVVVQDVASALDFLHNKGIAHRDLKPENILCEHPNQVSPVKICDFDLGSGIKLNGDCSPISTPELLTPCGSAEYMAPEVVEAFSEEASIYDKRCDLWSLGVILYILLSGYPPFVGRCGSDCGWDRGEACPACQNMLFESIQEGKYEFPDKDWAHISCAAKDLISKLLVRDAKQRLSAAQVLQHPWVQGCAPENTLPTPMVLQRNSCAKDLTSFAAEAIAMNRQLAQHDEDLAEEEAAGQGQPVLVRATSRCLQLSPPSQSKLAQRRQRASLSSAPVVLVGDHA

[23] = molecular target: NTRK1 (human) (UniProt P04629)
[24] = molecular target: PAK4 (human) (UniProt O96013)
[25] = molecular target: PIM1 (human) (UniProt P11309)
[26] = molecular target: PIM2 (human) (UniProt Q9P1W9)
[27] = molecular target: PIM3 (human) (UniProt Q86V86)
[28] = molecular target: PLK1 (human) (UniProt P53350)
[29] = test system: ROCK2 (rat); conditions: accession and sequence are those of the human protein
[30] = molecular target: RPS6KA1 KD1 KD2 (human) (UniProt Q15418)
[31] = molecular target: RPS6KA3 KD1 KD2 (human) (UniProt P51812)
Sequence of RPS6KA3 KD1 KD2 (human) (P51812 whole entry, looked up): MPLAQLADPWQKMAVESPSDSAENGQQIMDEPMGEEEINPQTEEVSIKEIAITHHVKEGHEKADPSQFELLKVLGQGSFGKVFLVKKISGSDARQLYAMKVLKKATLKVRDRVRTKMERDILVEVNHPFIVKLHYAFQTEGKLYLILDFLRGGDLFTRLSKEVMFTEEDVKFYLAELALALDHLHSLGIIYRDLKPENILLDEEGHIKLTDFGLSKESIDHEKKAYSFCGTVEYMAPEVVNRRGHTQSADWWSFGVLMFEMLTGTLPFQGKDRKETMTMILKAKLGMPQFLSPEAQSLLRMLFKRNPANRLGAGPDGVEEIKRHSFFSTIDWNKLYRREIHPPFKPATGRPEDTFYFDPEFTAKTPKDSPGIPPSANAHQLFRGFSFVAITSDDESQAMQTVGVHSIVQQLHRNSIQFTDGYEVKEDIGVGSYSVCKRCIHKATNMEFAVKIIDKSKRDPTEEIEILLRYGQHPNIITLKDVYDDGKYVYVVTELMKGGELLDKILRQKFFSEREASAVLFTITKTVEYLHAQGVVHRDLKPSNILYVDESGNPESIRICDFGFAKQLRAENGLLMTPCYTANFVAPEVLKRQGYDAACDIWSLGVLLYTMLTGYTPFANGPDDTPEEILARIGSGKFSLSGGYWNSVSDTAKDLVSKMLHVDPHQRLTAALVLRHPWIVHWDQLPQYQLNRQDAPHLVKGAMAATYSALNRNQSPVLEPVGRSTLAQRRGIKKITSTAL

[32] = test system: RPS6KB1 (human), P23443 [T412E]
[33] = test system: SGK1 (human), O00141 [S422D]
Sequence of SGK1 (human), O00141 [S422D] (O00141 whole entry S422D, looked up): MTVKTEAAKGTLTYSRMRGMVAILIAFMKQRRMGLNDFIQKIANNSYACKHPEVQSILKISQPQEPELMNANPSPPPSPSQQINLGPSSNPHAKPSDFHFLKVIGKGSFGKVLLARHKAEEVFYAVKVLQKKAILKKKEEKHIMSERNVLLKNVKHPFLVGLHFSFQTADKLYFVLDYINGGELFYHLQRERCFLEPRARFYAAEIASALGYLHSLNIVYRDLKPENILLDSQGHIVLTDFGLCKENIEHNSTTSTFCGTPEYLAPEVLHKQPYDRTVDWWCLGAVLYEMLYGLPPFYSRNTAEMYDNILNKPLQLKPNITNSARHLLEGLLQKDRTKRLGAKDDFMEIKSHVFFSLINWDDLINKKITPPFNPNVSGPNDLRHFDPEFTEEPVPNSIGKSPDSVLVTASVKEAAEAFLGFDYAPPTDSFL

[34] = molecular target: STK3 (human) (UniProt Q13188)
[35] = molecular target: TBK1 (human) (UniProt Q9UHD2)

Sequence of DAPK1 (human) (P53355 whole entry, looked up): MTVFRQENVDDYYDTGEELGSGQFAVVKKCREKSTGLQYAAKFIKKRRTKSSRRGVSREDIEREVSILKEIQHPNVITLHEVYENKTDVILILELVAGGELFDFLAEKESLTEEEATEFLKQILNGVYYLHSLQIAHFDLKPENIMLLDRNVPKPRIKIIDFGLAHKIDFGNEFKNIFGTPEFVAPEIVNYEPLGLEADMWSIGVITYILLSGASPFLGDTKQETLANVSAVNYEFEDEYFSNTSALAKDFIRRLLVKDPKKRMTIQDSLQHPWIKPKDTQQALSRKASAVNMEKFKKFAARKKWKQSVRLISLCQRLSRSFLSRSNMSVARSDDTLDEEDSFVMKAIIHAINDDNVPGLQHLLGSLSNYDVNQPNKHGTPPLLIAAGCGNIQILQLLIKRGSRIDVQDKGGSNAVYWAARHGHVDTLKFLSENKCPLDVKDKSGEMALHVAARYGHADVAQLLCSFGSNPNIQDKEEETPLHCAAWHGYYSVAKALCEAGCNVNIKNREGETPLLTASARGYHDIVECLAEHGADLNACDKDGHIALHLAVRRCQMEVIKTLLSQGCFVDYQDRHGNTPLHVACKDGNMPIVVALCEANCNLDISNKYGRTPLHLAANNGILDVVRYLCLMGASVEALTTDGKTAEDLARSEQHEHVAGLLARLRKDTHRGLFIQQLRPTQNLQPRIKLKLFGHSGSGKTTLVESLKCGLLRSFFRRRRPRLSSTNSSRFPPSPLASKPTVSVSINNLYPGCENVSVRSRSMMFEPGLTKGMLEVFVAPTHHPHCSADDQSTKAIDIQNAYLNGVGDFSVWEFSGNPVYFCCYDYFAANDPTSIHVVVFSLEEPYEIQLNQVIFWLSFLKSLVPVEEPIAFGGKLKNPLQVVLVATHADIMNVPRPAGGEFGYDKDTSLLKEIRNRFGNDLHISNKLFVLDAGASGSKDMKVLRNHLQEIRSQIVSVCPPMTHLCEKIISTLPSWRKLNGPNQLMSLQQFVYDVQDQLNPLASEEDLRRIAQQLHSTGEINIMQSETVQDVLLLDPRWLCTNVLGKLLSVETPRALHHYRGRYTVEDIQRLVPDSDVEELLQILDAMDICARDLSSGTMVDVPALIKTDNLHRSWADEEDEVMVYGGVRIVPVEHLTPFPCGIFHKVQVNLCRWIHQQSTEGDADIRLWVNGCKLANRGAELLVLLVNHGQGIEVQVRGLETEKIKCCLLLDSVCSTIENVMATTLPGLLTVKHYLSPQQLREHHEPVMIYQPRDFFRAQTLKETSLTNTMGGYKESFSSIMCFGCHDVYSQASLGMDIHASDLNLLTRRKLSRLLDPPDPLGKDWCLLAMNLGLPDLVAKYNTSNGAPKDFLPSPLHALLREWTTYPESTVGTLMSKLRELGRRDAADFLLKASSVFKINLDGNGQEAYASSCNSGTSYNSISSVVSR
Sequence of CLK2 (human) (P49760 whole entry, looked up): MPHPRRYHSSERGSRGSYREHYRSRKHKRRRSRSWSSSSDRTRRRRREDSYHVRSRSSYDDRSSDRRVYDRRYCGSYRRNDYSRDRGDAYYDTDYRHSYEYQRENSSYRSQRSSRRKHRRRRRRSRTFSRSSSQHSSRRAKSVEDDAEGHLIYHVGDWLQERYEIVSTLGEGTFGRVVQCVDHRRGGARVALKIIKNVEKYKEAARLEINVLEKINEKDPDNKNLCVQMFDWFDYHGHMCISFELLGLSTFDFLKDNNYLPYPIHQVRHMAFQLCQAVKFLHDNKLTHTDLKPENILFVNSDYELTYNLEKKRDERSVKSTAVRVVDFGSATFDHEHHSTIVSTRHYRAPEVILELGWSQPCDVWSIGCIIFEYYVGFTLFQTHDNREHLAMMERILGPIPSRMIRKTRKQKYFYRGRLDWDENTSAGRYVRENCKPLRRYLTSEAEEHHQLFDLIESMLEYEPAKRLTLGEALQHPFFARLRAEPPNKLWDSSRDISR

## Cc1ccc(Sc2cnc(Nc3cccc(Br)n3)s2)cc1C(=O)N1CCN(C(=O)CN)CC1
[1]; compound 0.1 µM
  residual activity: 105%
[1]; compound 1.0 µM
  residual activity: 86%
[1]; compound 10.0 µM
  residual activity: 53%
[2]; compound 0.1 µM
  residual activity: 88%
[2]; compound 1.0 µM
  residual activity: 80%
[2]; compound 10.0 µM
  residual activity: 40%
[3]; compound 0.1 µM
  residual activity: 3%
[3]; compound 1.0 µM
  residual activity: 3%
[3]; compound 10.0 µM
  residual activity: 1%
[4]; compound 0.1 µM
  residual activity: 119%
[4]; compound 1.0 µM
  residual activity: 104%
[4]; compound 10.0 µM
  residual activity: 85%
[5]; compound 0.1 µM
  residual activity: 99%
[5]; compound 1.0 µM
  residual activity: 96%
[5]; compound 10.0 µM
  residual activity: 63%
[6]; compound 0.1 µM
  residual activity: 103%
[6]; compound 1.0 µM
  residual activity: 101%
[6]; compound 10.0 µM
  residual activity: 61%
[7]; compound 0.1 µM
  residual activity: 89%
[7]; compound 1.0 µM
  residual activity: 78%
[7]; compound 10.0 µM
  residual activity: 43%
[8]; compound 0.1 µM
  residual activity: 22%
[8]; compound 1.0 µM
  residual activity: 20%
[8]; compound 10.0 µM
  residual activity: 6%
[9]; compound 0.1 µM
  residual activity: 107%
[9]; compound 1.0 µM
  residual activity: 92%
[9]; compound 10.0 µM
  residual activity: 84%
[10]; compound 0.1 µM
  residual activity: 91%
[10]; compound 1.0 µM
  residual activity: 80%
[10]; compound 10.0 µM
  residual activity: 76%
[11]; compound 0.1 µM
  residual activity: 5%
[11]; compound 1.0 µM
  residual activity: 3%
[11]; compound 10.0 µM
  residual activity: 2%
[12]; compound 0.1 µM
  residual activity: 94%
[12]; compound 1.0 µM
  residual activity: 95%
[13]; compound 0.1 µM
  residual activity: 84%
[13]; compound 1.0 µM
  residual activity: 77%
[13]; compound 10.0 µM
  residual activity: 51%
[14]; compound 0.1 µM
  residual activity: 107%
[14]; compound 1.0 µM
  residual activity: 84%
[14]; compound 10.0 µM
  residual activity: 27%
[15]; compound 0.1 µM
  residual activity: 87%
[15]; compound 1.0 µM
  residual activity: 76%
[15]; compound 10.0 µM
  residual activity: 48%
[16]; compound 0.1 µM
  residual activity: 77%
[16]; compound 1.0 µM
  residual activity: 80%
[16]; compound 10.0 µM
  residual activity: 45%
[17]; compound 0.1 µM
  residual activity: 101%
[17]; compound 1.0 µM
  residual activity: 89%
[17]; compound 10.0 µM
  residual activity: 47%
[18]; compound 0.1 µM
  residual activity: 103%
[18]; compound 1.0 µM
  residual activity: 78%
[18]; compound 10.0 µM
  residual activity: 99%
[19]; compound 0.1 µM
  residual activity: 98%
[19]; compound 1.0 µM
  residual activity: 99%
[19]; compound 10.0 µM
  residual activity: 53%
[20]; compound 0.1 µM
  residual activity: 91%
[20]; compound 1.0 µM
  residual activity: 77%
[20]; compound 10.0 µM
  residual activity: 85%
[21]; compound 0.1 µM
  residual activity: 96%
[21]; compound 1.0 µM
  residual activity: 94%
[21]; compound 10.0 µM
  residual activity: 96%
[22]; compound 0.1 µM
  residual activity: 120%
[22]; compound 1.0 µM
  residual activity: 92%
[22]; compound 10.0 µM
  residual activity: 73%
[23]; compound 0.1 µM
  residual activity: 14%
[23]; compound 1.0 µM
  residual activity: 19%
[23]; compound 10.0 µM
  residual activity: 4%
[24]; compound 0.1 µM
  residual activity: 69%
[24]; compound 1.0 µM
  residual activity: 67%
[24]; compound 10.0 µM
  residual activity: 20%
[25]; compound 0.1 µM
  residual activity: 54%
[25]; compound 1.0 µM
  residual activity: 49%
[25]; compound 10.0 µM
  residual activity: 11%
[26]; compound 0.1 µM
  residual activity: 94%
[26]; compound 1.0 µM
  residual activity: 92%
[26]; compound 10.0 µM
  residual activity: 77%
[27]; compound 0.1 µM
  residual activity: 53%
[27]; compound 1.0 µM
  residual activity: 72%
[27]; compound 10.0 µM
  residual activity: 21%
[28]; compound 0.1 µM
  residual activity: 97%
[28]; compound 1.0 µM
  residual activity: 85%
[28]; compound 10.0 µM
  residual activity: 114%
[29]; compound 0.1 µM
  residual activity: 90%
[29]; compound 1.0 µM
  residual activity: 82%
[29]; compound 10.0 µM
  residual activity: 63%
[30]; compound 0.1 µM
  residual activity: 31%
[30]; compound 1.0 µM
  residual activity: 29%
[30]; compound 10.0 µM
  residual activity: 6%
[31]; compound 0.1 µM
  residual activity: 67%
[31]; compound 1.0 µM
  residual activity: 64%
[31]; compound 10.0 µM
  residual activity: 18%
[32]; compound 0.1 µM
  residual activity: 95%
[32]; compound 1.0 µM
  residual activity: 92%
[32]; compound 10.0 µM
  residual activity: 11%
[33]; compound 0.1 µM
  residual activity: 89%
[33]; compound 1.0 µM
  residual activity: 90%
[33]; compound 10.0 µM
  residual activity: 41%
[34]; compound 0.1 µM
  residual activity: 16%
[34]; compound 1.0 µM
  residual activity: 19%
[34]; compound 10.0 µM
  residual activity: 3%
[35]; compound 0.1 µM
  residual activity: 87%
[35]; compound 1.0 µM
  residual activity: 78%
[35]; compound 10.0 µM
  residual activity: 93%

## CCCCCc1ccc(/C=C/[C@H](O)[C@@H](CO)NC)cc1
[1]; compound 0.1 µM
  residual activity: 99%
[1]; compound 1.0 µM
  residual activity: 97%
[2]; compound 0.1 µM
  residual activity: 130%
[2]; compound 1.0 µM
  residual activity: 108%
[2]; compound 10.0 µM
  residual activity: 108%
[3]; compound 0.1 µM
  residual activity: 106%
[3]; compound 1.0 µM
  residual activity: 104%
[3]; compound 10.0 µM
  residual activity: 97%
[4]; compound 0.1 µM
  residual activity: 78%
[4]; compound 1.0 µM
  residual activity: 87%
[4]; compound 10.0 µM
  residual activity: 83%
[5]; compound 0.1 µM
  residual activity: 109%
[5]; compound 1.0 µM
  residual activity: 101%
[5]; compound 10.0 µM
  residual activity: 103%
[6]; compound 0.1 µM
  residual activity: 83%
[6]; compound 1.0 µM
  residual activity: 91%
[6]; compound 10.0 µM
  residual activity: 84%
[7]; compound 0.1 µM
  residual activity: 93%
[7]; compound 1.0 µM
  residual activity: 98%
[7]; compound 10.0 µM
  residual activity: 93%
[8]; compound 0.1 µM
  residual activity: 104%
[8]; compound 1.0 µM
  residual activity: 100%
[8]; compound 10.0 µM
  residual activity: 86%
[9]; compound 0.1 µM
  residual activity: 91%
[9]; compound 1.0 µM
  residual activity: 97%
[9]; compound 10.0 µM
  residual activity: 100%
[10]; compound 0.1 µM
  residual activity: 106%
[10]; compound 1.0 µM
  residual activity: 95%
[10]; compound 10.0 µM
  residual activity: 86%
[11]; compound 0.1 µM
  residual activity: 72%
[11]; compound 1.0 µM
  residual activity: 66%
[11]; compound 10.0 µM
  residual activity: 67%
[12]; compound 0.1 µM
  residual activity: 102%
[12]; compound 1.0 µM
  residual activity: 98%
[12]; compound 10.0 µM
  residual activity: 99%
[13]; compound 0.1 µM
  residual activity: 102%
[13]; compound 1.0 µM
  residual activity: 106%
[13]; compound 10.0 µM
  residual activity: 109%
[14]; compound 0.1 µM
  residual activity: 100%
[14]; compound 1.0 µM
  residual activity: 108%
[14]; compound 10.0 µM
  residual activity: 111%
[15]; compound 0.1 µM
  residual activity: 99%
[15]; compound 1.0 µM
  residual activity: 106%
[15]; compound 10.0 µM
  residual activity: 95%
[16]; compound 0.1 µM
  residual activity: 93%
[16]; compound 1.0 µM
  residual activity: 80%
[16]; compound 10.0 µM
  residual activity: 87%
[17]; compound 0.1 µM
  residual activity: 95%
[17]; compound 1.0 µM
  residual activity: 87%
[17]; compound 10.0 µM
  residual activity: 80%
[18]; compound 1.0 µM
  residual activity: 97%
[18]; compound 10.0 µM
  residual activity: 85%
[19]; compound 0.1 µM
  residual activity: 98%
[19]; compound 1.0 µM
  residual activity: 94%
[20]; compound 0.1 µM
  residual activity: 115%
[20]; compound 1.0 µM
  residual activity: 119%
[20]; compound 10.0 µM
  residual activity: 123%
[21]; compound 0.1 µM
  residual activity: 89%
[21]; compound 1.0 µM
  residual activity: 99%
[21]; compound 10.0 µM
  residual activity: 90%
[22]; compound 0.1 µM
  residual activity: 111%
[22]; compound 1.0 µM
  residual activity: 98%
[22]; compound 10.0 µM
  residual activity: 102%
[23]; compound 0.1 µM
  residual activity: 103%
[23]; compound 1.0 µM
  residual activity: 110%
[23]; compound 10.0 µM
  residual activity: 86%
[24]; compound 0.1 µM
  residual activity: 91%
[24]; compound 1.0 µM
  residual activity: 91%
[24]; compound 10.0 µM
  residual activity: 85%
[25]; compound 0.1 µM
  residual activity: 100%
[25]; compound 1.0 µM
  residual activity: 95%
[25]; compound 10.0 µM
  residual activity: 95%
[26]; compound 0.1 µM
  residual activity: 103%
[26]; compound 1.0 µM
  residual activity: 109%
[26]; compound 10.0 µM
  residual activity: 97%
[27]; compound 0.1 µM
  residual activity: 118%
[27]; compound 1.0 µM
  residual activity: 121%
[27]; compound 10.0 µM
  residual activity: 107%
[28]; compound 0.1 µM
  residual activity: 106%
[28]; compound 1.0 µM
  residual activity: 94%
[28]; compound 10.0 µM
  residual activity: 96%
[29]; compound 0.1 µM
  residual activity: 110%
[29]; compound 1.0 µM
  residual activity: 94%
[29]; compound 10.0 µM
  residual activity: 116%
[30]; compound 0.1 µM
  residual activity: 95%
[30]; compound 1.0 µM
  residual activity: 98%
[30]; compound 10.0 µM
  residual activity: 81%
[31]; compound 0.1 µM
  residual activity: 87%
[31]; compound 1.0 µM
  residual activity: 95%
[31]; compound 10.0 µM
  residual activity: 81%
[32]; compound 0.1 µM
  residual activity: 114%
[32]; compound 1.0 µM
  residual activity: 108%
[32]; compound 10.0 µM
  residual activity: 100%
[33]; compound 0.1 µM
  residual activity: 83%
[33]; compound 1.0 µM
  residual activity: 87%
[33]; compound 10.0 µM
  residual activity: 78%
[34]; compound 0.1 µM
  residual activity: 96%
[34]; compound 1.0 µM
  residual activity: 90%
[34]; compound 10.0 µM
  residual activity: 94%
[35]; compound 0.1 µM
  residual activity: 111%
[35]; compound 10.0 µM
  residual activity: 93%
